Measured values: patent US20230017045A1, “PYRIDINE AND PYRIMIDINE CARBOXYLATE HERBICIDES AND METHODS OF USE THEREOF” (Dow AgroSciences LLC, priority 2017, published 2023)
Where two headings read alike, the source gives them in different places.

Test system: test plant species
Assay: Post-emergent herbicidal activity test (greenhouse, foliar spray, visual growth reduction)
Assay type: in vivo
Conditions: post-emergence, 336 h, 140 g ai/ha
Procedure, shortened: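 Scoring used a 0 to 100 percent visual scale of growth reduction against solvent-treated controls, read 14 d after spraying. Applications went onto plants at first or second true leaf stage, 187 L/ha, with crop oil concentrate and X-77 surfactant in the carrier. Post-treatment watering was by subirrigation to avoid wash-off.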

[1] = ALOMY: blackgrass (Alopecurus myosuroides), 14 days after application, read-out: Visual Growth Reduction (%) 14 Days After Application, ALOMY
[2] = AMARE: redroot pigweed (Amaranthus retroflexus), 14 days after application, read-out: Visual Growth Reduction (%) 14 Days After Application, AMARE
[3] = AVEFA: wild oat (Avena fatua), 14 days after application, read-out: Visual Growth Reduction (%) 14 Days After Application, AVEFA
[4] = CHEAL: lambsquarters (Chenopodium album), 14 days after application, read-out: Visual Growth Reduction (%) 14 Days After Application, CHEAL
[5] = CIRAR: canada thistle (Cirsium arvense), 14 days after application, read-out: Visual Growth Reduction (%) 14 Days After Application, CIRAR
[6] = CYPES: yellow nutsedge (Cyperus esculentus), 14 days after application, read-out: Visual Growth Reduction (%) 14 Days After Application, CYPES
[7] = DIGSA: crabgrass (Digitaria sanguinalis), 14 days after application, read-out: Visual Growth Reduction (%) 14 Days After Application, DIGSA
[8] = ECHCG: barnyardgrass (Echinochloa crus-galli), 14 days after application, read-out: Visual Growth Reduction (%) 14 Days After Application, ECHCG
[9] = IPOHE: ivy-leaf morning glory (Ipomoea hederacea), 14 days after application, read-out: Visual Growth Reduction (%) 14 Days After Application, IPOHE
[10] = KCHSC: kochia (Bassia scoparia), 14 days after application, read-out: Visual Growth Reduction (%) 14 Days After Application, KCHSC
[11] = ORYSA: rice (Oryza sativa), 14 days after application, read-out: Visual Growth Reduction (%) 14 Days After Application, ORYSA
[12] = SETFA: giant foxtail (Setaria faberi), 14 days after application, read-out: Visual Growth Reduction (%) 14 Days After Application, SETFA
[13] = SORVU: grain sorghum (Sorghum vulgare), 14 days after application, read-out: Visual Growth Reduction (%) 14 Days After Application, SORVU
[14] = STEME: common chickweed (Stellaria media), 14 days after application, read-out: Visual Growth Reduction (%) 14 Days After Application, STEME
[15] = TRZAS: wheat, spring (Triticum aestivum), 14 days after application, read-out: Visual Growth Reduction (%) 14 Days After Application, TRZAS

| SMILES | pest or weed control at 140 g/ha [1] | pest or weed control at 140 g/ha [2] | pest or weed control at 140 g/ha [3] | pest or weed control at 140 g/ha [4] | pest or weed control at 140 g/ha [5] | pest or weed control at 140 g/ha [6] | pest or weed control at 140 g/ha [7] | pest or weed control at 140 g/ha [8] | pest or weed control at 140 g/ha [9] | pest or weed control at 140 g/ha [10] | pest or weed control at 140 g/ha [11] | pest or weed control at 140 g/ha [12] | pest or weed control at 140 g/ha [13] | pest or weed control at 140 g/ha [14] | pest or weed control at 140 g/ha [15] | also measured |
| --- | --- | --- | --- | --- | --- | --- | --- | --- | --- | --- | --- | --- | --- | --- | --- | --- |
| O=C(O)c1nc(-c2ccc(C(F)(F)F)nc2)c(Cl)cc1Cl [F84, 3,5-dichloro-6′-(trifluoromethyl)-[2,3′-bipyridine]-6-carboxylic acid] | 0 to 29% | 0 to 29% | 0 to 29% | 45 to 59% | 0 to 29% | 0 to 29% | 30 to 44% | 0 to 29% | 0 to 29% | 0 to 29% | 0 to 29% | 0 to 29% | 0 to 29% | 0 to 29% | 0 to 29% | – |
| COC(=O)c1nc(-c2ccc(C(F)(F)F)cc2OC)c(F)cc1F [F377, Methyl 3,5-difluoro-6-(2-methoxy-4-(trifluoromethyl)phenyl)picolinate] | – | – | – | – | – | – | – | 60 to 74% | 95 to 100% | 60 to 74% | 0 to 29% | 75 to 84% | 85 to 94% | 0 to 29% | 0 to 29% | pest or weed control at 140 g/ha (blackgrass (Alopecurus myosuroides), 14 Days After Application, read-out: Visual Growth Reduction (%) ALOMY): 0 to 29%; pest or weed control at 140 g/ha (canada thistle (Cirsium arvense), 14 Days After Application, read-out: Visual Growth Reduction (%) CIRAR): 75 to 84%; pest or weed control at 140 g/ha (crabgrass (Digitaria sanguinalis), 14 Days After Application, read-out: Visual Growth Reduction (%) DIGSA): 60 to 74%; pest or weed control at 140 g/ha (lambsquarters (Chenopodium album), 14 Days After Application, read-out: Visual Growth Reduction (%) CHEAL): 85 to 94%; pest or weed control at 140 g/ha (redroot pigweed (Amaranthus retroflexus), 14 Days After Application, read-out: Visual Growth Reduction (%) AMARE): 95 to 100%; pest or weed control at 140 g/ha (wild oat (Avena fatua), 14 Days After Application, read-out: Visual Growth Reduction (%) AVEFA): 30 to 44%; pest or weed control at 140 g/ha (yellow nutsedge (Cyperus esculentus), 14 Days After Application, read-out: Visual Growth Reduction (%) CYPES): 60 to 74% |
| COC(=O)c1nc(-c2ccc(C=O)cc2Cl)ccc1Cl [F22, methyl 3-chloro-6-(2-chloro-4-formylphenyl)picolinate] | 0 to 29% | 0 to 29% | 0 to 29% | 0 to 29% | 0 to 29% | 0 to 29% | 0 to 29% | 0 to 29% | 0 to 29% | 0 to 29% | 0 to 29% | 0 to 29% | 0 to 29% | 0 to 29% | 0 to 29% | – |
| COC(=O)c1nc(-c2ccc(C(F)(F)F)cc2F)c(F)cc1Cl [F158, methyl 3-chloro-5-fluoro-6-(2-fluoro-4-(trifluoromethyl)phenyl)picolinate] | 0 to 29% | 95 to 100% | 30 to 44% | 95 to 100% | 85 to 94% | 0 to 29% | 85 to 94% | 45 to 59% | 95 to 100% | 60 to 74% | 0 to 29% | 75 to 84% | 75 to 84% | 0 to 29% | 60 to 74% | – |
